Among the data in US11090364B2, “Conjugates of a pharmaceutical agent and a moiety capable of binding to a glucose sensing protein” (SANOFI, priority 2016, dated 2021) are inhibition values, retold here.

SMILES strings stand for the structures.

The subject of this experiment is HepG2 cells. Nature of the experiment: HepG2 assay: 14C 2-deoxy-D-glucose transport into HepG2 cells. As to conditions: Homo sapiens, test compound 100 μM. Type of experiment: cell-based. The procedure:
For measurement of ^14C 2-deoxy-D-glucose transport into HepG2 cells, cells were seeded in collagen treated 96-well plates (Cytostar-T Plates Perkin Elmer, 40.000 cells/200 μ/well) in medium complete (MEM W/GLUT-I, EARLES (Gibco #41090) /NEAA/PS/10% FCS) and grown for 48 hours. After starvation for 2 hours with MEM W/GLUT-I, EARLES (Gibco #41090)/NEAA/no serum 100 μl/well and washing twice with 200 μL KRB buffer, cells were stimulated in a dose dependent manner by adding 20 μL of test compound dilution 0-750 μM (7.5 times higher concentration than final) or 20 μL of 188 μM Cytochalasin B solution as negative control, to 80 μL KRB buffer and incubated for 30 minutes. After compound stimulation, the transport of ^14C 2-deoxy-D-glucose was started by adding of 50 μL ^14C 2-deoxy-D-glucose solution (250 μM 2-deoxy-D-glucose cold and 15 μM ^14C 2-deoxy-D-glucose 0.13 μCi/well) for 20 minutes. Transport was stopped by adding 50 μL/well 40 μM Cytochalasin B solution. Plates were measured in a 96-well Wallac Microbeta device. The cpm (counts per minute) values were used to determine the % inhibition values for the test compounds within each experiment, which then are averaged over the number of experiments performed.
With `CC(=O)O[C@@H]1O[C@H](C(=O)N2CCN(C(C)C)CC2)[C@@H](OC(C)=O)[C@H](OC(C)=O)[C@H]1OC(C)=O` [Example 6, [(2S,3R,4S,5S,6S)-2,3,5-Triacetoxy-6-(4-isopropylpiperazine-1-carbonyl)tetrahydropyran-4-yl] acetate], testing at 100 µM gave an inhibition of 7.75%. For `O=C([C@H]1OC(O)[C@H](O)[C@@H](O)[C@@H]1O)N1CCN(Cc2ccc3c(c2)OCO3)CC1` (stereo partly drawn) [Example 40, [4-(1,3-Benzodioxol-5-ylmethyl)piperazin-1-yl]-[(2S,3S,4S,5R)-3,4,5,6-tetrahydroxytetrahydropyran-2-yl]methanone], the inhibition – broadly, the drop in the measured response relative to a control, in per cent – at 100 µM stood at 10.1%. In turn, `COc1ccccc1N1CCN(C(=O)[C@H]2O[C@@H](OC(C)=O)[C@H](OC(C)=O)[C@@H](OC(C)=O)[C@@H]2OC(C)=O)CC1` [Example 19, [(2S,3R,4S,5S,6S)-2,3,5-Triacetoxy-6-[4-(2-methoxyphenyl)piperazine-1-carbonyl]tetrahydropyran-4-yl] acetate] came in with an inhibition at 100 µM of 6.89%.

`O=C([C@H]1OC(O)[C@H](O)[C@@H](O)[C@@H]1O)N1CCN(C2CCCCC2)CC1` (stereo partly drawn) [Example 29, (4-Cyclohexylpiperazin-1-yl)-[(2S,3S,4S,5R)-3,4,5,6-tetrahydroxytetrahydropyran-2-yl]methanone] gave an inhibition at 100 µM of 18.4%. Next, `COc1ccccc1N1CCN(CC2=C[C@H](OC(C)=O)[C@@H](OC(C)=O)[C@H](OC(C)=O)O2)CC1` [Example 52, [(2S,3R,4S)-2,3-Diacetoxy-6-[[4-(2-methoxyphenyl)piperazin-1-yl]methyl]-3,4-dihydro-2H-pyran-4-yl] acetate]: 14.6%; `CC(=O)O[C@@H]1O[C@H](C(=O)N2CCN(C(C)(C)C)CC2)[C@@H](OC(C)=O)[C@H](OC(C)=O)[C@H]1OC(C)=O` [Example 7, [(2S,3R,4S,5S,6S)-2,3,5-Triacetoxy-6-(4-tert-butylpiperazine-1-carbonyl)tetrahydropyran-4-yl] acetate]: 6.99%. As to `C=CCN1CCN(C(=O)[C@H]2O[C@@H](OC(C)=O)[C@H](OC(C)=O)[C@@H](OC(C)=O)[C@@H]2OC(C)=O)CC1` [Example 8, [(2S,3R,4S,5S,6S)-2,3,5-Triacetoxy-6-(4-allylpiperazine-1-carbonyl)tetrahydropyran-4-yl] acetate], at 100 µM the inhibition was 7.67%.

For the compound `C=CCN1CCN(C(=O)[C@H]2OC(O)[C@H](O)[C@@H](O)[C@@H]2O)CC1` (stereo partly drawn) [Example 28, (4-Allylpiperazin-1-yl)-[(2S,3S,4S,5R)-3,4,5,6-tetrahydroxytetrahydropyran-2-yl]methanone], the inhibition at 100 µM came out at 9.95%. Next, `CC(=O)O[C@@H]1O[C@H](C(=O)N2CCN(c3ccc(Cl)cc3)CC2)[C@@H](OC(C)=O)[C@H](OC(C)=O)[C@H]1OC(C)=O` [Example 14, [(2S,3R,4S,5S,6S)-2,3,5-Triacetoxy-6-[4-(4-chlorophenyl)piperazine-1-carbonyl]tetrahydropyran-4-yl] acetate]: 5.67%; `COc1cccc(N2CCN(C(=O)[C@H]3OC(O)[C@H](O)[C@@H](O)[C@@H]3O)CC2)c1` (stereo partly drawn) [Example 38, [4-(3-Methoxyphenyl)piperazin-1-yl]-[(2S,3S,4S,5R)-3,4,5,6-tetrahydroxytetrahydropyran-2-yl]methanone]: 12.7%. `COc1ccc2cc(-c3cn([C@H]4C(O)O[C@H](CO)[C@@H](O)[C@@H]4O)nn3)ccc2c1` (stereo partly drawn) [Example 60, (3R,4R,5S,6R)-6-(Hydroxymethyl)-3-[4-(6-methoxy-2-naphthyl)triazol-1-yl]tetrahydropyran-2,4,5-triol] had an inhibition at 100 µM of 14.8%. Compound `COc1ccccc1N1CCN(C(=O)[C@H]2OC(O)[C@H](O)[C@@H](O)[C@@H]2O)CC1` (stereo partly drawn) [Example 39, [4-(2-Methoxyphenyl)piperazin-1-yl]-[(2S,3S,4S,5R)-3,4,5,6-tetrahydroxytetrahydropyran-2-yl]methanone] yielded an inhibition at 100 µM of 11%.
